Assay results reported in ChEMBL document CHEMBL3627608, “Crystal structures of human RIP2 kinase catalytic domain complexed with ATP-competitive inhibitors: Foundations for understanding inhibitor selectivity” (Bioorg Med Chem, 2015).

Columns and labels:
[1] = molecular target: Receptor-interacting serine/threonine-protein kinase 2 (Homo sapiens, UniProt O43353); assay: Inhibition of full-length FLAG-6His-TEV tagged human RIP2 expressed in Sf9 cells assessed as residence time by fluorescent polarization assay
Chain of Receptor-interacting serine/threonine-protein kinase 2 (O43353 whole entry): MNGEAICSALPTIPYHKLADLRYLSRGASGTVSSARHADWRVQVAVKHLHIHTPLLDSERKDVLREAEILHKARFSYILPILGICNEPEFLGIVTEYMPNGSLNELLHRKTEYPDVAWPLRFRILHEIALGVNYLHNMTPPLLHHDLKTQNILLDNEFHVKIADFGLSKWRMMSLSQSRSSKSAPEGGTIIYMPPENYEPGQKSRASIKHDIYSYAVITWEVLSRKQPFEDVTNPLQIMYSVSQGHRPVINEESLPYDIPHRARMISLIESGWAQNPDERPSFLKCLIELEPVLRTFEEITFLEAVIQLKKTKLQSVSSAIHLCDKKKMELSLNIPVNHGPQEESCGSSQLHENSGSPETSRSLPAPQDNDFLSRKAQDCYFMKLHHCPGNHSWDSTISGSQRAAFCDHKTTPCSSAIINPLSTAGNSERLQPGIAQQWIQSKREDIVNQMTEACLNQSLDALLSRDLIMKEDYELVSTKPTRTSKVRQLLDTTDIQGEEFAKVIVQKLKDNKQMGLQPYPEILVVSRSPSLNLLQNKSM

[2] = molecular target: Serine/threonine-protein kinase SIK2 (Homo sapiens) (UniProt Q9H0K1); assay: Inhibition of SIK2 (unknown origin) at 10 uM after 120 mins P33 radiolabeled kinase activity assay
[3] = molecular target: Tyrosine-protein kinase FRK (Homo sapiens) (UniProt P42685); assay: Inhibition of FRK (unknown origin) at 10 uM after 120 mins P33 radiolabeled kinase activity assay
Chain of Tyrosine-protein kinase FRK (Homo sapiens) (P42685 whole entry): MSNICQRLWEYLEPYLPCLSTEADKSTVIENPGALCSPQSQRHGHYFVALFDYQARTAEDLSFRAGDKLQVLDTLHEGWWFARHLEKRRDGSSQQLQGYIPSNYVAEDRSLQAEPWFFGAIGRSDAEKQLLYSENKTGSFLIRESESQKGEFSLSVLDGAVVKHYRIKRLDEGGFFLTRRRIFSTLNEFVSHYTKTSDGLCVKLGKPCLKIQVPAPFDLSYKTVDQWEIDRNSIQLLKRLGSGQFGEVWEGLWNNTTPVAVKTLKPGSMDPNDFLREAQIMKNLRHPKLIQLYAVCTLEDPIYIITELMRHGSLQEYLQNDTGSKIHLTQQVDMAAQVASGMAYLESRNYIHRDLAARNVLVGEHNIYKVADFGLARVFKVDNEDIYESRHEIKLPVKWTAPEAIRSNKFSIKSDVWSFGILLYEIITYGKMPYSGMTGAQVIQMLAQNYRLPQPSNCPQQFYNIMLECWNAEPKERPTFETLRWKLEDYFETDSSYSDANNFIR

[4] = molecular target: Tyrosine-protein kinase ABL1 (Homo sapiens) (UniProt P00519); assay: Inhibition of ABL1 (unknown origin) at 10 uM after 120 mins P33 radiolabeled kinase activity assay
Chain of Tyrosine-protein kinase ABL1 (Homo sapiens) (P00519 whole entry): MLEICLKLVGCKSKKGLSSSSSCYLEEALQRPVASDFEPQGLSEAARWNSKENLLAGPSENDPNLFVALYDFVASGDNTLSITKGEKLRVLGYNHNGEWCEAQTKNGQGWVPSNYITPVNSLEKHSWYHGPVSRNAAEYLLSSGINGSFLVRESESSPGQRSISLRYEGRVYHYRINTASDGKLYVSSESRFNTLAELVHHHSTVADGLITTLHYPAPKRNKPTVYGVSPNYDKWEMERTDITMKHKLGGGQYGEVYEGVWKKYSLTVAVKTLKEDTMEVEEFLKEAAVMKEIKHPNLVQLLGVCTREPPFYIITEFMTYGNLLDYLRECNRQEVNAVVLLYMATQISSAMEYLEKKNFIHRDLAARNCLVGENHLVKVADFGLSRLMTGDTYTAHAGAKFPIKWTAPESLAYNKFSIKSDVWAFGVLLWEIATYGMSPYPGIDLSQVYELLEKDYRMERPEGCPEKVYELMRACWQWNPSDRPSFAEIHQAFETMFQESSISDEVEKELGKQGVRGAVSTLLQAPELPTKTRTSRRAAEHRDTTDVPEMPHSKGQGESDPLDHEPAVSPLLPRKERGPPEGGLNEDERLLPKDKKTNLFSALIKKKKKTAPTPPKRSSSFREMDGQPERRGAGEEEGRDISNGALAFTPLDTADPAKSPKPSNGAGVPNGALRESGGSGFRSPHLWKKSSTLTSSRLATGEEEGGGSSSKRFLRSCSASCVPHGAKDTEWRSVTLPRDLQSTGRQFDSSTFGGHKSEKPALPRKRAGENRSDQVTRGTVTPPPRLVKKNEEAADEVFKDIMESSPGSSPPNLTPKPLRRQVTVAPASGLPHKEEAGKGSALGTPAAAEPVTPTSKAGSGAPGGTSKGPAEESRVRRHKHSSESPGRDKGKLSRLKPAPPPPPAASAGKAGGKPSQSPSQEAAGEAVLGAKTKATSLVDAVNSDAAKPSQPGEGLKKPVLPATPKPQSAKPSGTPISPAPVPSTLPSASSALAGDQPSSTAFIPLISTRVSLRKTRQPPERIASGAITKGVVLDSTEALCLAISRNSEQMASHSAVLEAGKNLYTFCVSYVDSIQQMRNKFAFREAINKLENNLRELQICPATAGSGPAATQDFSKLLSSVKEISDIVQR

[5] = molecular target: Serine/threonine-protein kinase MRCK gamma (Homo sapiens) (UniProt Q6DT37); assay: Inhibition of DMPK2 (unknown origin) at 10 uM after 120 mins P33 radiolabeled kinase activity assay
Chain of Serine/threonine-protein kinase MRCK gamma (Homo sapiens) (Q6DT37 whole entry): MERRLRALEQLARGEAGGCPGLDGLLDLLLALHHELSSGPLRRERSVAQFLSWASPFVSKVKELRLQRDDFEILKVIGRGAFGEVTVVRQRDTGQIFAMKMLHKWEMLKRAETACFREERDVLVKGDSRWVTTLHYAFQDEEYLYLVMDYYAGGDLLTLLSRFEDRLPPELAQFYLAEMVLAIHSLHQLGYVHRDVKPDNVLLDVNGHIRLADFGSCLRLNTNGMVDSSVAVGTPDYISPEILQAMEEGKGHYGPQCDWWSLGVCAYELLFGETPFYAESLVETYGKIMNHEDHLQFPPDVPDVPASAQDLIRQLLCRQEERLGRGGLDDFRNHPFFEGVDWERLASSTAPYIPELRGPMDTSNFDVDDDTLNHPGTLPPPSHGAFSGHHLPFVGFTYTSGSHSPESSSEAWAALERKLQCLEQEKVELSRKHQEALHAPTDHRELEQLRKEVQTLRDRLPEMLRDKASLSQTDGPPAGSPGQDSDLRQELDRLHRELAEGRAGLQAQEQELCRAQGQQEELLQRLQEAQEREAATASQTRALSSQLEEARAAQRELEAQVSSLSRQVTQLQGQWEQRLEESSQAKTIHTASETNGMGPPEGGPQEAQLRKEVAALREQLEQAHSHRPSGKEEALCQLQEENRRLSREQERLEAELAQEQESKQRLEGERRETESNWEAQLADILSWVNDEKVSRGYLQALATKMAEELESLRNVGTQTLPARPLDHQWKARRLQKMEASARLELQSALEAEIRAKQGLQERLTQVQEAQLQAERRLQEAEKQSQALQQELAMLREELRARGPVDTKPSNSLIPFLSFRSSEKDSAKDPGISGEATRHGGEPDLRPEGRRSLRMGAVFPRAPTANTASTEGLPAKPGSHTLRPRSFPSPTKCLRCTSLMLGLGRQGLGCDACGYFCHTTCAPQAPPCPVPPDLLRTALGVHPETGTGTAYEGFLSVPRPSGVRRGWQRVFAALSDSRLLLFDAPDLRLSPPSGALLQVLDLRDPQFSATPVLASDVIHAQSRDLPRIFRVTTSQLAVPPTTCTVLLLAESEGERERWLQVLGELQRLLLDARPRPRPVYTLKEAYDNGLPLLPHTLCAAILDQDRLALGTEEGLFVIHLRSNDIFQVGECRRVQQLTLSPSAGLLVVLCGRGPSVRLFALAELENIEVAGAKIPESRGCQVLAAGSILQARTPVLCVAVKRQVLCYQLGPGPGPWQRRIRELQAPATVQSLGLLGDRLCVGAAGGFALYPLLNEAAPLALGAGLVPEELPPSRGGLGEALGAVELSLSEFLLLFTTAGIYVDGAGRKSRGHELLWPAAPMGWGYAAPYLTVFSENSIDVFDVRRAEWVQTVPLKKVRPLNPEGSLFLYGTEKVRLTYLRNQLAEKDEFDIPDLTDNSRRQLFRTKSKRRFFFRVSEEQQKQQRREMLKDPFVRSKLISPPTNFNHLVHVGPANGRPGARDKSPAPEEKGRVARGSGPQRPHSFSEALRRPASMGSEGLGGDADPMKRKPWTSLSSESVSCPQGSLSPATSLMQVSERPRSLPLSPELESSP

[6] = molecular target: T1, Serine/threonine-protein kinase STK11 (Homo sapiens) (UniProt Q15831); assay: Inhibition of LKB1 (unknown origin) at 10 uM after 120 mins P33 radiolabeled kinase activity assay
T1 sequence (whole entry): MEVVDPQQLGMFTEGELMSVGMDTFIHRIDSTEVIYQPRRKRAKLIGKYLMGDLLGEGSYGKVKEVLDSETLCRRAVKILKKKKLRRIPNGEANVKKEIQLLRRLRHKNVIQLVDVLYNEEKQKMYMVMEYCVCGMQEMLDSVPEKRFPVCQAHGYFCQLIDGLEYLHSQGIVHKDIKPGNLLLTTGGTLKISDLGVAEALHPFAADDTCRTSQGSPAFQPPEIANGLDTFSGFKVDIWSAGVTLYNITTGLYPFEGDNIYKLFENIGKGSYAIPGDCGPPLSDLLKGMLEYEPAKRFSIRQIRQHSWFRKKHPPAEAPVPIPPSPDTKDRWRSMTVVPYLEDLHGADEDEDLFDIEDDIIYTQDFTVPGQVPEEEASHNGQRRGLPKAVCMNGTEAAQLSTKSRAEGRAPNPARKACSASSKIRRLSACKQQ

[7] = molecular target: Mitogen-activated protein kinase kinase kinase kinase 1 (Homo sapiens) (UniProt Q92918); assay: Inhibition of HPK1 (unknown origin) at 10 uM after 120 mins P33 radiolabeled kinase activity assay
[8] = molecular target: T2, Tyrosine-protein kinase receptor TYRO3 (Homo sapiens) (UniProt Q06418); assay: Inhibition of TYRO3 (unknown origin) at 10 uM after 120 mins P33 radiolabeled kinase activity assay
T2 sequence (whole entry): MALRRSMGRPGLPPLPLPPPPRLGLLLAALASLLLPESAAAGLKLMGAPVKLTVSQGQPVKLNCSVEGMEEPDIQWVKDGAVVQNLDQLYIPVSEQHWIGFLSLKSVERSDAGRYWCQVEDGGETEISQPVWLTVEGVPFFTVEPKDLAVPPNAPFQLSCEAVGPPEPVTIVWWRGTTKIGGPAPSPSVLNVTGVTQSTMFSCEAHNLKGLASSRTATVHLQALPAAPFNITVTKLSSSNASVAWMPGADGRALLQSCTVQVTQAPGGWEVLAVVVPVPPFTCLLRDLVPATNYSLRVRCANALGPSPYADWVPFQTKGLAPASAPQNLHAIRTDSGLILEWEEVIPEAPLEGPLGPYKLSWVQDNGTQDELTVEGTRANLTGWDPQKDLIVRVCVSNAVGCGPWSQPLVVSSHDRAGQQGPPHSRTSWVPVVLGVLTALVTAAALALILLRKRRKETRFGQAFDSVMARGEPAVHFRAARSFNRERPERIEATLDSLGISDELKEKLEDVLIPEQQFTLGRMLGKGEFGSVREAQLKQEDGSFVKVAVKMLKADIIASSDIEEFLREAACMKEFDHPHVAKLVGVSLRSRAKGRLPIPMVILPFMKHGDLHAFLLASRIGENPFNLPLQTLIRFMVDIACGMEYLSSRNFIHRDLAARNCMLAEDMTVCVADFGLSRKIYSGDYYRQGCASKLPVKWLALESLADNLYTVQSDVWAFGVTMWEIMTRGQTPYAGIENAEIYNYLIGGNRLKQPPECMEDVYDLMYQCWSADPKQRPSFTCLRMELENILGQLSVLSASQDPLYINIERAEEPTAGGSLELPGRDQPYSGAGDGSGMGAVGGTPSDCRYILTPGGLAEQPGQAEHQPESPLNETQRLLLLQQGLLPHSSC

[9] = molecular target: T3, Serine/threonine-protein kinase TBK1 (Homo sapiens) (UniProt Q9UHD2); assay: Inhibition of TBK1 (unknown origin) at 10 uM after 120 mins P33 radiolabeled kinase activity assay
T3 sequence (whole entry): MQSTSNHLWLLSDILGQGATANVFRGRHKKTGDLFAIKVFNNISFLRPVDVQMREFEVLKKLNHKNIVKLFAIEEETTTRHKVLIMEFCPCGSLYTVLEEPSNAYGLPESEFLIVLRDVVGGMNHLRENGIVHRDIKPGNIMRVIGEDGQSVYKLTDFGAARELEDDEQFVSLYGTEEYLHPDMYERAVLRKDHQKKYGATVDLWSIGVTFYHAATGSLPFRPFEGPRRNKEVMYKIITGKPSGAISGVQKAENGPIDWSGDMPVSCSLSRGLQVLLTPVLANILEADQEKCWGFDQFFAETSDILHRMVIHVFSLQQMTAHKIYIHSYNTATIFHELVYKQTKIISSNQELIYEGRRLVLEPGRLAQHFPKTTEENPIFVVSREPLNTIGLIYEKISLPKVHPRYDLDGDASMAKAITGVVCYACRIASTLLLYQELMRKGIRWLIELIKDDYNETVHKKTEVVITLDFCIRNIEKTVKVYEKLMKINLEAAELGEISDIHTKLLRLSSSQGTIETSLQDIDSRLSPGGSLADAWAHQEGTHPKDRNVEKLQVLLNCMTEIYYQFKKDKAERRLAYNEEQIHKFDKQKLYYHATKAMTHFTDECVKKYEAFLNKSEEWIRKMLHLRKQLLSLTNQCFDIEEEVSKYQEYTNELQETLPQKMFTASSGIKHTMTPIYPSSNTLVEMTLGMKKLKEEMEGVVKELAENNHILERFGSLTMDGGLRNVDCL

[10] = molecular target: Tyrosine-protein kinase Fes/Fps (Homo sapiens) (UniProt P07332); assay: Inhibition of FES (unknown origin) at 10 uM after 120 mins P33 radiolabeled kinase activity assay
Chain of Tyrosine-protein kinase Fes/Fps (Homo sapiens) (P07332 whole entry): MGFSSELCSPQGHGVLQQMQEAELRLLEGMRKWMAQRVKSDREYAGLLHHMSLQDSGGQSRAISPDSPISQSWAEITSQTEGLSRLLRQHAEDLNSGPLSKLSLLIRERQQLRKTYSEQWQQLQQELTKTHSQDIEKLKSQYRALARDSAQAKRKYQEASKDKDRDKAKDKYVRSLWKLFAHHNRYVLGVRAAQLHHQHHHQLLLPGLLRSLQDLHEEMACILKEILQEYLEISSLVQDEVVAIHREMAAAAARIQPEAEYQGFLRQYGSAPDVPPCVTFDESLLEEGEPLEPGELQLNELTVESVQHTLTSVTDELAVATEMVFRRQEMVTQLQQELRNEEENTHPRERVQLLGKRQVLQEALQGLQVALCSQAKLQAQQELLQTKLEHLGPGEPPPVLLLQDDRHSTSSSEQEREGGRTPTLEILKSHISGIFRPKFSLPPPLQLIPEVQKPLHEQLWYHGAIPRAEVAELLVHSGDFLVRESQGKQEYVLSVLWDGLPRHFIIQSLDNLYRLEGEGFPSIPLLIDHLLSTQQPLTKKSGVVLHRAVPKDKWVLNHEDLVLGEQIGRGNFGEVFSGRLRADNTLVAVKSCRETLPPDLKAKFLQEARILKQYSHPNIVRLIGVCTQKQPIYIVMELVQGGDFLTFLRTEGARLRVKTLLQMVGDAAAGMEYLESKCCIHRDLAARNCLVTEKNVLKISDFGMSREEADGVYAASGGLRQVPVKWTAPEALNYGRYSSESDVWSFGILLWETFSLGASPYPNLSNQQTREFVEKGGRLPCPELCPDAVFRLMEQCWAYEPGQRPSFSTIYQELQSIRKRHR

[11] = molecular target: Glycogen synthase kinase-3 beta (Homo sapiens) (UniProt P49841); assay: Inhibition of GSK3beta (unknown origin) at 10 uM after 120 mins P33 radiolabeled kinase activity assay
Chain of Glycogen synthase kinase-3 beta (Homo sapiens) (P49841 whole entry, looked up): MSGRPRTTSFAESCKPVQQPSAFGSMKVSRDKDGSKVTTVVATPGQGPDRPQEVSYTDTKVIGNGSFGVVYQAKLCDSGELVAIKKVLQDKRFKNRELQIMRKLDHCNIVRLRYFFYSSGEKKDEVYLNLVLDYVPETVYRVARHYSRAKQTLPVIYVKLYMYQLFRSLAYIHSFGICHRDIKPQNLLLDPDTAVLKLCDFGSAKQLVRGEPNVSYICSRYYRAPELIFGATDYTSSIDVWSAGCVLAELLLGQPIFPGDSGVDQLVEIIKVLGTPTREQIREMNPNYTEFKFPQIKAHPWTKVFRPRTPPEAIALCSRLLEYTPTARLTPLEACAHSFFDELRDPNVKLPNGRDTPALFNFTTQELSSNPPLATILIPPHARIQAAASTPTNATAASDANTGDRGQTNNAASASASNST

[12] = molecular target: Homeodomain-interacting protein kinase 2 (Homo sapiens) (UniProt Q9H2X6); assay: Inhibition of HIPK2 (unknown origin) at 10 uM after 120 mins P33 radiolabeled kinase activity assay

SMILES: COCCNC(=O)c1ccc2c(c1)nc(-c1cnc(-c3ccc(Cl)cc3)[nH]1)n2CCOC
- T1/2 [1]: 0.00167 h
- inhibition [2]: 17%
- inhibition [3]: 54.5%
- inhibition [4]: 65.6%
- inhibition [5]: -3.48%
- inhibition [6]: 3.09%
- inhibition [7]: -3.48%
- inhibition [8]: 12.8%
- inhibition [9]: 5.84%
- inhibition [10]: 16.4%
- inhibition [11]: 16.9%
- inhibition [12]: -4.82%

SMILES: CS(=O)(=O)c1cccc(Nc2nccc(-c3sc(N4CCOCC4)nc3-c3cccc(NS(=O)(=O)c4c(F)cccc4F)c3)n2)c1
- T1/2 [1]: 1.32 h
- inhibition [2]: 97.2%
- inhibition [3]: 96.9%
- inhibition [4]: 98.1%
- inhibition [5]: -3.32%
- inhibition [6]: 46.2%
- inhibition [7]: 31.9%
- inhibition [8]: 79.5%
- inhibition [9]: 55.4%
- inhibition [10]: 42.4%
- inhibition [11]: 98.9%
- inhibition [12]: 91.4%

SMILES: CC(C)(C)c1cc(NC(=O)Nc2ccc(Oc3ccncc3)cc2)no1
- T1/2 [1]: 1.42 h
- inhibition [2]: 19.2%
- inhibition [3]: 99%
- inhibition [4]: 88.4%
- inhibition [5]: -1.44%
- inhibition [6]: 3.9%
- inhibition [7]: 57.6%
- inhibition [8]: 60.7%
- inhibition [9]: 4.25%
- inhibition [10]: 33.8%
- inhibition [11]: 34.9%
- inhibition [12]: 18.1%
